Experimental findings from patent publication US20230416330A1, “Optimized GIP Peptide Analogues” (Antag Therapeutics ApS, priority 2019, published 2023) are described below.

Read-outs that look alike come from different tables or passages of the source. Residues, ends and D or L forms follow the SMILES beside them. *: point of attachment. C16 diacid = O=C(O)CCCCCCCCCCCCCCC(=O)*

Series [1] can be described thus: Solubility by visual inspection of peptide solutions. As to conditions: 1 mg/ml, TFA, Phosphate (7.4). It counts as physicochemical. The method, boiled down: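 Peptides dissolved at 1, 5, 7.5 or 15 mg/ml in 50 mM sodium phosphate pH 7.4 or water adjusted to pH 7.4 with NaOH, with gentle mixing. Immediate solubility judged visually as a clear, colorless solution.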

For another series, the target named is T1, human GIP receptor (Homo sapiens, UniProt P48546).
T1 construct: host or cells: HEK-293 cells, transient transfection (Lipofectamine 2000), cDNA in pCMV-Script vector
T1 sequence (P48546 22-466): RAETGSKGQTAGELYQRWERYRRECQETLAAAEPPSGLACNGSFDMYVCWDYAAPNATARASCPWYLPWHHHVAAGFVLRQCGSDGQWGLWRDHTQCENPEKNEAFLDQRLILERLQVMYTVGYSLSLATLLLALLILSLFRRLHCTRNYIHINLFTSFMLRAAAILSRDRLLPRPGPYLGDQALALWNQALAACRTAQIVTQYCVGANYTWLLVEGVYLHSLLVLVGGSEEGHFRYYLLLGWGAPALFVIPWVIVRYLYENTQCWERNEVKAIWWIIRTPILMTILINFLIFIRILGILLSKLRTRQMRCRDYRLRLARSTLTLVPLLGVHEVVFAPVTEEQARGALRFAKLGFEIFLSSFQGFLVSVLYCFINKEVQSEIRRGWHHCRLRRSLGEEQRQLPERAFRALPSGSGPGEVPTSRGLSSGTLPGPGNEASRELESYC
Briefly: cAMP assay Alternative 2 (Gaddum assay), antagonist potency pKb. Type of series: cell-based. How it is done: HEK293 cells were cultured in 10% CO2 and 37° C. in Dulbecco's modified Eagle's medium supplemented with 10% fetal bovine serum, 2 mM glutamine, 180 units/ml penicillin, and 45 µg/ml streptomycin. Transient transfection with hGIPR for the CisBio assay from Table 2C was performed by using Lipofectamine 2000.
Antagonist potency (pKb) was estimated in a functional setting. The estimated pKb values were calculated from the shifts of the agonist-concentration-response curves in the presence of a single dose of GIP peptide antagonists using the Gaddum equation: pKb=log(DR-1)-log(B), where DR (EC50′/EC50) is the dose ratio calculated from EC50 of GIP1-42 obtained in the presence and absence (EC50) of antagonist, and B is the antagonist concentration used.
The in vitro functional assessment of compounds towards human GIP receptor was determined in HEK-293 cells transiently expressing the receptor. On the day of the assay, cells were resuspended in HBSS buffer (Gibco, 14025-50) supplemented with […] (Gibco, 15630-106), 0.1% Pluronic F-68 (Gibco, 24040-032) and 0.1% casein (Sigma, C4765), and plated in 384-well plates at a density of 3500 cells/well. The GIP peptide analogues of the present disclosure were diluted in HBSS buffer supplemented with 20 mM HEPES, 0.1% pluronic, 0.1% casein and 500 uM IBMX. […] Increasing dose of agonist (GIP1-42) was subsequently added to cells and incubated for additionally 30 min at 37° C. The intracellular cAMP was quantitatively determined using the CisBio cAMP Dynamic 2 HTRF Assay Kit. The assay is based on a competition between native cAMP produced by cells and cAMP labeled with the dye d2 for binding to a cryptate labeled antibody. The specific signal (i.e. energy transfer signal) is inversely proportional to the concentration of cAMP in the sample.
The cAMP-d2 conjugate and the antibody anti-cAMP-Cryptate, both diluted in lysis buffer provided in the kit, were added to the cells according to the manufacturer's protocol. The resulting competitive assay was incubated for 60 minutes at room temperature, and the signal was detected by using a PerkinElmer Envision® instrument with excitation at 320 nm and emission at 665 nm and 620 nm. The HTRF ratio (emission at 665 nm/620 nm*10,000) is inversely proportional to the amount of cAMP present and is converted to nM cAMP per well using a cAMP standard curve.
On the technique in general: Cyclic AMP is a second messenger, typically raised through Gs and lowered through Gi signalling.

The nature of series [2]: Physical stability: fibril formation in Thioflavin T (ThT) assay with agitation. Type of series: physicochemical. As to conditions: 1 mg/ml, TFA, Phosphate (7.4); 25° C., agitation. The method, boiled down:
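Peptides at 1, 5, 7.5 or 15 mg/ml in 50 mM sodium phosphate pH 7.4 or in water adjusted to pH 7.4 with NaOH, filtered 0.22 μm, with ThT added. Wells held a 3 mm silica bead under 300 rpm orbital agitation at 25° C. Emission at 486 nm tracked continuously; lag time = 10% of transition above baseline.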

In the case of `CC[C@H](C)[C@H](NC(=O)[C@H](CO)NC(=O)[C@H](Cc1ccc(O)cc1)NC(=O)[C@H](CC(=O)O)NC(=O)[C@H](CO)NC(=O)[C@@H](NC(=O)[C@H](Cc1ccccc1)NC(=O)[C@@H](NC(=O)CNC(=O)[C@@H](N)CCC(=O)O)[C@@H](C)O)[C@@H](C)CC)C(=O)N[C@@H](C)C(=O)N[C@@H](CCSC)C(=O)N[C@@H](CC(=O)O)C(=O)N[C@@H](CCCCN)C(=O)N[C@H](C(=O)N[C@@H](Cc1c[nH]cn1)C(=O)N[C@@H](CCC(N)=O)C(=O)N[C@@H](CCC(N)=O)C(=O)N[C@@H](CC(=O)O)C(=O)N[C@@H](Cc1ccccc1)C(=O)N[C@H](C(=O)N[C@@H](CCC(=O)O)C(=O)N[C@@H](Cc1c[nH]c2ccccc12)C(=O)N[C@@H](CC(C)C)C(=O)N[C@@H](CC(C)C)C(=O)N[C@@H](C)C(=O)N[C@@H](CCC(N)=O)C(=O)N[C@@H](CCCCN)C(=O)N1CCC[C@H]1C(=O)N[C@@H](CO)C(=O)N[C@@H](CO)C(=O)N[C@@H](CCCCNC(=O)CCCCCCCCCCCCCCC(=O)O)C(=O)N[C@@H](C)C(=O)N1CCC[C@H]1C(=O)N1CCC[C@H]1C(=O)N1CCC[C@H]1C(=O)N[C@@H](CO)C(=O)O)C(C)C)[C@@H](C)CC` [AT743] (H-EGTFISDYSIAMDKIHQQDFVEWLLAQKPSSK(C16 diacid)APPPS-OH; N-terminus assumed), the Visual appearance entry in series [1] is “Clear”. The Kb at human GIP receptor (Table 2C, Gaddum equation, single antagonist dose, HEK-293 hGIPR, read-out: nM (Kb)) is 19 nM. The “Avr lag time (h)” value in series [2] is listed as “fnd (Fnd = fibrils not detected within experiment time (96 hours) with agitation.)”.

For `CC[C@H](C)[C@H](NC(=O)[C@H](CCCCN)NC(=O)[C@H](CC(=O)O)NC(=O)[C@H](CCSC)NC(=O)[C@H](CCCCNC(=O)CCCCCCCCCCCCCCC(=O)O)NC(=O)[C@@H](NC(=O)[C@H](CO)NC(=O)[C@H](Cc1ccc(O)cc1)NC(=O)[C@H](CC(=O)O)NC(=O)[C@H](CO)NC(=O)[C@@H](NC(=O)[C@H](Cc1ccccc1)NC(=O)[C@@H](NC(=O)CNC(=O)[C@@H](N)CCC(=O)O)[C@@H](C)O)[C@@H](C)CC)[C@@H](C)CC)C(=O)N[C@@H](Cc1c[nH]cn1)C(=O)N[C@@H](CCC(N)=O)C(=O)N[C@@H](CCC(N)=O)C(=O)N[C@@H](CC(=O)O)C(=O)N[C@@H](Cc1ccccc1)C(=O)N[C@H](C(=O)N[C@@H](CCC(=O)O)C(=O)N[C@@H](Cc1c[nH]c2ccccc12)C(=O)N[C@@H](CC(C)C)C(=O)N[C@@H](CC(C)C)C(=O)N[C@@H](C)C(=O)N[C@@H](CCC(N)=O)C(=O)N[C@@H](CCCCN)C(=O)N1CCC[C@H]1C(=O)N[C@@H](CO)C(=O)N[C@@H](CO)C(=O)NCC(=O)N[C@@H](C)C(=O)N1CCC[C@H]1C(=O)N1CCC[C@H]1C(=O)N1CCC[C@H]1C(=O)N[C@@H](CO)C(=O)O)C(C)C` [AT740] (H-EGTFISDYSIK(C16 diacid)MDKIHQQDFVEWLLAQKPSSGAPPPS-OH; N-terminus assumed), in series [1], the Visual appearance entry is reported as “Clear”. The compound also returned a Kb on human GIP receptor of 14 nM. The “Avr lag time (h)” value in series [2] is “fnd (Fnd = fibrils not detected within experiment time (96 hours) with agitation.)”.

In the case of `CC[C@H](C)[C@H](NC(=O)[C@H](CO)NC(=O)[C@H](Cc1ccc(O)cc1)NC(=O)[C@H](CC(=O)O)NC(=O)[C@H](CO)NC(=O)[C@@H](NC(=O)[C@H](Cc1ccccc1)NC(=O)[C@@H](NC(=O)CNC(=O)[C@@H](N)CCC(=O)O)[C@@H](C)O)[C@@H](C)CC)C(=O)N[C@@H](C)C(=O)N[C@@H](CCSC)C(=O)N[C@@H](CC(=O)O)C(=O)N[C@@H](CCCCN)C(=O)N[C@H](C(=O)N[C@@H](CCCCNC(=O)CCCCCCCCCCCCCCC(=O)O)C(=O)N[C@@H](CCC(N)=O)C(=O)N[C@@H](CCC(N)=O)C(=O)N[C@@H](CC(=O)O)C(=O)N[C@@H](Cc1ccccc1)C(=O)N[C@H](C(=O)N[C@@H](CCC(=O)O)C(=O)N[C@@H](Cc1c[nH]c2ccccc12)C(=O)N[C@@H](CC(C)C)C(=O)N[C@@H](CC(C)C)C(=O)N[C@@H](C)C(=O)N[C@@H](CCC(=O)O)C(=O)N[C@@H](CCCCN)C(=O)N1CCC[C@H]1C(=O)N[C@@H](CO)C(=O)N[C@@H](CO)C(=O)NCC(=O)N[C@@H](C)C(=O)N1CCC[C@H]1C(=O)N1CCC[C@H]1C(=O)N1CCC[C@H]1C(=O)N[C@@H](CO)C(=O)O)C(C)C)[C@@H](C)CC` [AT747] (H-EGTFISDYSIAMDKIK(C16 diacid)QQDFVEWLLAEKPSSGAPPPS-OH; N-terminus assumed), in series [1], the Visual appearance entry was “Clear”. The Kb on human GIP receptor was 14 nM. The “Avr lag time” value in series [2] is less than 24 h.

On to `CC[C@H](C)[C@H](NC(=O)[C@H](CO)NC(=O)[C@H](Cc1ccc(O)cc1)NC(=O)[C@H](CC(=O)O)NC(=O)[C@H](CO)NC(=O)[C@@H](NC(=O)[C@H](Cc1ccccc1)NC(=O)[C@@H](NC(=O)CNC(=O)[C@@H](N)CCC(=O)O)[C@@H](C)O)[C@@H](C)CC)C(=O)N[C@@H](C)C(=O)N[C@@H](CCSC)C(=O)N[C@@H](CC(=O)O)C(=O)N[C@@H](CCCCNC(=O)CCCCCCCCCCCCCCC(=O)O)C(=O)N[C@H](C(=O)N[C@@H](Cc1c[nH]cn1)C(=O)N[C@@H](CCC(N)=O)C(=O)N[C@@H](CCC(N)=O)C(=O)N[C@@H](CC(=O)O)C(=O)N[C@@H](Cc1ccccc1)C(=O)N[C@H](C(=O)N[C@@H](CCC(=O)O)C(=O)N[C@@H](Cc1c[nH]c2ccccc12)C(=O)N[C@@H](CC(C)C)C(=O)N[C@@H](CC(C)C)C(=O)N[C@@H](C)C(=O)N[C@@H](CCC(N)=O)C(=O)N[C@@H](CCCCN)C(=O)N1CCC[C@H]1C(=O)N[C@@H](CO)C(=O)N[C@@H](CO)C(=O)NCC(=O)N[C@@H](C)C(=O)N1CCC[C@H]1C(=O)N1CCC[C@H]1C(=O)N1CCC[C@H]1C(=O)N[C@@H](CO)C(=O)O)C(C)C)[C@@H](C)CC` [AT741] (H-EGTFISDYSIAMDK(C16 diacid)IHQQDFVEWLLAQKPSSGAPPPS-OH; N-terminus assumed), for which the Visual appearance entry in series [1] is “Clear”. The compound also registered a Kb on human GIP receptor of 11 nM. The “Avr lag time (h)” value in series [2] is on record as “fnd (Fnd = fibrils not detected within experiment time (96 hours) with agitation.)”.

As a reminder, the Kb is the affinity of an antagonist, worked out from how it opposes an agonist.
